Measurements published in patent US10894785B2, “Piperidine derivatives for use in the treatment of pancreatic cancer” (CENTRE HOSPITALIER UNIVERSITAIRE VAUDOIS CHUV, priority 2016, dated 2021).

Key:
[1] = test system: pancreatic ductal adenocarcinoma (Panc-1); test: Anti-tumor activity on Panc-1: cell viability by sulforhodamine or MTT assay; type: cell-based; settings: Homo sapiens, Panc-1 cells, 96 hours treatment, 0.001-1000 nM
Protocol: The compounds according to the present invention were evaluated for their anti-tumor activities on pancreatic ductal adenocarcinoma (Panc-1). To this end, 0.5×10^6 human malignant cells were treated with various concentrations (0.001-1000 nM) for 96 hours of FK866 or the compounds according to the present invention. Subsequently cell viability was determined using either sulforhodamine assays as described in Caffa I, et al. (Oncotarget. 2015 May 20; 6(14):11820-32) or MTT assays. Sulforhodamine B is a dye able that binds to cellular proteins. […] For MTT assays, human malignant cells were plated in triplicate on 96-well plates and treated as mentioned above. After 96 hours of incubation, 15 μL of dye solution was added to each well and cells were incubated for an additional 4 hours. Stop solution (100 μL/well) was added for 1 hour and the absorbance was read at 570 nm on a spectrophotometer. To confirm whether the cytotoxicity exerted by these compounds involves programmed cell death, drug-induced cell death was evaluated using annexin V and 7AAD double staining as described by the manufacturer for assessing apoptosis or autophagic-cell death using a Beckman Coulter Cytomics Gallios flow cytometer. Dead cells were identified as annexinV+ and/or 7AAD+. GraphPad Prism version 7.00 (GraphPad Software, San Diego, Calif.) was used for IC50 calculation.

[2] = Pharmacokinetics after intraperitoneal administration in female SCID mice (plasma, LC-MS/MS, non compartmental analysis); type: in vivo; settings: 20 mg/kg IP; for CL: CL calculated as dose/AUC; for Percentage of extrapolated AUC from T6 h to infinity / T1/2α / T1/2β / half-lives in the second phase (6 h→24 h) compared with FK866 / Cmax / Tmax / AUC(0-inf) / AUC(0-t): plasma; for Percentage of extrapolated AUC from T6 h to infinity: relative to AUC0-inf; for T1/2α: t½α (0 -> 6 h); for T1/2β: t½β (6 -> 24 h); for half-lives in the second phase (6 h→24 h) compared with FK866: versus FK866; for Cmax / Tmax / AUC(0-inf) / AUC(0-t): mouse; for AUC(0-inf): log-trapezoidal rule, extrapolated to infinity; for AUC(0-t): read-out: AUC0-8 h
Protocol: The pharmacokinetics parameters of FK866, FE1199, VAL22-2 and MPM07 were determined following intraperitoneal administration (IP) in female SCID mice.
• SCID (Severe Combined ImmunoDeficiency) mice female total 144 • 25 mM in DMSO (dimethylsulfoxyde) of each test drug • Saline solution (0.9%)
Test drugs were dissolved in saline solution at 20 mg/ml. All dosing solutions were controlled by HPLC (High-Performance Liquid Chromatography) analysis. Mouse weight is estimated around 20 g.
Three mice per time point were used in each group.
Blood samples were collected on citrate at 10 min, 30 min, 1 h, 2 h, 4 h, 6 h, 8 h and 24 hours after drug administration. Following centrifugation, resulting plasma was stored at […] pending bioanalysis. Samples were analyzed by LC-MS/MS (Liquid chromatography tandem-mass spectrometry); the lower limit of quantification achieved was between 3 and 12 nM depending on drug. Non compartmental pharmacokinetic analysis was performed on plasma concentration data.

SMILES	IC50 [1]	other results
COc1ccc(C(=O)N2CCC(CCCCNC(=O)/C=C/c3cccnc3)CC2)c(OC)c1 [FEI-56, (E)-N-(4-(1-(2,4-Dimethoxybenzoyl)piperidin-4-yl)butyl)-3-(pyridin-3-yl)acrylamide]	3 nM	
COc1cccc(OC)c1C(=O)N1CCC(CCCCNC(=O)/C=C/c2cccnc2)CC1 [FEI-58, (E)-N-(4-(1-(2,6-Dimethoxybenzoyl)piperidin-4-yl)butyl)-3-(pyridin-3-yl)acrylamide]	0.6 nM	
COc1cc(OC)c(C(=O)N2CCC(CCCCNC(=O)/C=C/c3cccnc3)CC2)c(OC)c1 [FEI-62, (E)-3-(Pyridin-3-yl)-N-(4-(1-(2,4,6-trimethoxybenzoyl)piperidin-4-yl)butyl)acrylamide]	1 nM	
COc1ccoc1C(=O)N1CCC(CCCCNC(=O)/C=C/c2cccnc2)CC1 [FEI-71, (E)-N-(4-(1-(3-Methoxyfuran-2-carbonyl)piperidin-4-yl)butyl)-3-(pyridin-3-yl)acrylamide]	7 nM	
O=C(/C=C/c1cccnc1)NCCCCC1CCN(C(=O)c2ccno2)CC1 [FEI-74, (E)-N-(4-(1-(Isoxazole-5-carbonyl)piperidin-4-yl)butyl)-3-(pyridin-3-yl)acrylamide]	5 nM	
COc1cc(C=O)cc(OC)c1C(=O)N1CCC(CCCCNC(=O)/C=C/c2cccnc2)CC1 [FEI-75, (E)-N-(4-(1-(4-Formyl-2,6-dimethoxybenzoyl)piperidin-4-yl)butyl)-3-(pyridin-3-yl)acrylamide]	2 nM	
O=C(/C=C/c1cccnc1)NC/C=C/CC1CCN(C(=O)c2ccccc2)CC1 [FEI-80, (E)-N-((E)-4-(1-Benzoylpiperidin-4-yl)but-2-en-1-yl)-3-(pyridin-3-yl)acrylamide]	9 nM	
COc1cccc(OC)c1C(=O)N1CCC(C/C=C/CNC(=O)/C=C/c2cccnc2)CC1 [FEI-81, (E)-N-((E)-4-(1-(2,6-Dimethoxybenzoyl)piperidin-4-yl)but-2-en-1-yl)-3-(pyridin-3-yl)acrylamide]	2.3 nM	
COc1cc(OC)c(C(=O)N2CCC(C/C=C/CNC(=O)/C=C/c3cccnc3)CC2)c(OC)c1 [FEI-82, (E)-3-(Pyridin-3-yl)-N-((E)-4-(1-(2,4,6-trimethoxybenzoyl)piperidin-4-yl)but-2-en-1-yl)acrylamide]	0.4 nM	
O=C(/C=C/c1cccnc1)NC/C=C/CC1CCN(C(=O)c2ccco2)CC1 [FEI-83, (E)-N-((E)-4-(1-(Furan-2-carbonyl)piperidin-4-yl)but-2-en-1-yl)-3-(pyridin-3-yl)acrylamide]	15 nM	
O=C(/C=C/c1cccnc1)NC/C=C/CC1CCN(C(=O)c2cccs2)CC1 [FEI-85, (E)-3-(Pyridin-3-yl)-N-((E)-4-(1-(thiophene-2-carbonyl)piperidin-4-yl)but-2-en-1-yl)acrylamide]	2 nM	
N#C/N=C(\NCCCCC1CCN(C(=O)c2ccccc2)CC1)Nc1ccncc1 [FEI-154, (E)-1-(4-(1-Benzoylpiperidin-4-yl)butyl)-2-cyano-3-(pyridin-4-yl)guanidine]	3.9 nM	
N#C/N=C(\NCCCCC1CCN(C(=O)c2ccco2)CC1)Nc1ccncc1 [FEI-158, (E)-2-Cyano-1-(4-(1-(furan-2-carbonyl)piperidin-4-yl)butyl)-3-(pyridin-4-yl)guanidine]	6.8 nM	
N#C/N=C(\NCCCCC1CCN(C(=O)c2ccco2)CC1)Nc1ccc(F)nc1 [FEI-170, (E)-2-Cyano-1-(6-fluoropyridin-3-yl)-3-(4-(1-(furan-2-carbonyl)piperidin-4-yl)butyl)guanidine]	18 nM	
N#C/N=C(\NCCCCC1CCN(C(=O)c2cccs2)CC1)Nc1ccc(F)nc1 [FEI-171, (E)-2-Cyano-1-(6-fluoropyridin-3-yl)-3-(4-(1-(thiophene-2-carbonyl)piperidin-4-yl)butyl)guanidine]	12 nM	
N#C/N=C(\NCCCCCC1CCN(C(=O)c2ccccc2)CC1)Nc1ccncc1 [FEI-190, (E)-1-(5-(1-Benzoylpiperidin-4-yl)pentyl)-2-cyano-3-(pyridin-4-yl)guanidine]	2.6 nM	
N#C/N=C(\NCCCCCC1CCN(C(=O)c2ccco2)CC1)Nc1ccncc1 [FEI-191, (E)-2-Cyano-1-(5-(1-(furan-2-carbonyl)piperidin-4-yl)pentyl)-3-(pyridin-4-yl)guanidine]	1.9 nM	

SMILES	IC50 [1]	other results
N#C/N=C(\NCCCCCC1CCN(C(=O)c2cccs2)CC1)Nc1ccncc1 [FEI-192, (E)-2-Cyano-1-(pyridin-4-yl)-3-(5-(1-(thiophene-2-carbonyl)piperidin-4-yl)pentyl)guanidine]	2.3 nM	
COc1cccc(OC)c1C(=O)N1CCC(CCCCCN/C(=N\C#N)Nc2ccncc2)CC1 [FEI-193, (E)-2-Cyano-1-(5-(1-(2,6-dimethoxybenzoyl)piperidin-4-yl)pentyl)-3-(pyridin-4-yl)guanidine]	4.8 nM	
N#C/N=C(\NC/C=C/CCC1CCN(C(=O)c2ccccc2)CC1)Nc1cccnc1 [FEI-194, (E)-1-((E)-5-(1-Benzoylpiperidin-4-yl)pent-2-en-1-yl)-2-cyano-3-(pyridin-3-yl)guanidine]	5 nM	
N#C/N=C(\NC/C=C/CCC1CCN(C(=O)c2ccco2)CC1)Nc1cccnc1 [FEI-195, (E)-2-Cyano-1-((E)-5-(1-(furan-2-carbonyl)piperidin-4-yl)pent-2-en-1-yl)-3-(pyridin-3-yl)guanidine]	4.6 nM	
N#C/N=C(\NC/C=C/CCC1CCN(C(=O)c2cccs2)CC1)Nc1cccnc1 [FEI-196, (E)-2-Cyano-1-(pyridin-3-yl)-3-((E)-5-(1-(thiophene-2-carbonyl)piperidin-4-yl)pent-2-en-1-yl)guanidine]	5.9 nM	
N#C/N=C(\NC/C=C/CCC1CCN(C(=O)c2ccccc2)CC1)Nc1ccncc1 [FEI-198, (E)-1-((E)-5-(1-Benzoylpiperidin-4-yl)pent-2-en-1-yl)-2-cyano-3-(pyridin-4-yl)guanidine]	5 nM	
N#C/N=C(\NC/C=C/CCC1CCN(C(=O)c2ccco2)CC1)Nc1ccncc1 [FEI-199, (E)-2-Cyano-1-((E)-5-(1-(furan-2-carbonyl)piperidin-4-yl)pent-2-en-1-yl)-3-(pyridin-4-yl)guanidine]	2.6 nM	CL [2]: 38.3 mL/h; Percentage of extrapolated AUC from T6 h to infinity [2]: 0.5%; T1/2α [2]: 18.6 min; T1/2β [2]: 606.6 min; half-lives in the second phase (6 h→24 h) compared with FK866 [2]: improved and longer half-lives; Cmax [2]: 12100 ng/mL; Tmax [2]: 10 min; AUC(0-inf) [2]: 5230 ng·h/mL; AUC(0-t) [2]: 5200 ng·h/mL
N#C/N=C(\NC/C=C/CCC1CCN(C(=O)c2cccs2)CC1)Nc1ccncc1 [FEI-200, (E)-2-Cyano-1-(pyridin-4-yl)-3-((E)-5-(1-(thiophene-2-carbonyl)piperidin-4-yl)pent-2-en-1-yl)guanidine]	2.4 nM	
COc1cccc(OC)c1C(=O)N1CCC(CCCCNC(=O)Nc2ccncc2)CC1 [FEI-209, 1-(4-(1-(2,6-Dimethoxybenzoyl)piperidin-4-yl)butyl)-3-(pyridin-4-yl)urea]	8.2 nM	
COc1cccc(OC)c1C(=O)N1CCC(CCCCNC(=O)/C=C/c2cccnc2F)CC1 [MPM-08]	6 nM	
COc1cccc(OC)c1C(=O)N1CCC(CCCCNC(=O)/C=C/c2ccc(F)nc2F)CC1 [MPM-09]	2 nM	
COc1cc(C=O)cc(OC)c1C(=O)N1CCC(CCCCNC(=O)/C=C/c2cccnc2F)CC1 [MPM-13]	15.5 nM	
CCCn1cc(C=O)c(C(=O)N2CCC(CCCCNC(=O)/C=C/c3cccnc3F)CC2)c1C [MPM-14, (E)-3-(2-fluoropyridin-3-yl)-N-(4-(1-(4-formyl-2-methyl-1-propyl-1H-pyrrole-3-carbonyl)piperidin-4-yl)butyl)acrylamide]	7.54 nM	
O=C(/C=C/c1ccc(F)nc1F)NCCCCC1CCN(C(=O)c2ccccc2)CC1 [PER-201, (E)-N-(4-(1-benzoylpiperidin-4-yl)butyl)-3-(2,6-difluoropyridin-3-yl)acrylamide]	14 nM	
O=C(/C=C/c1ccc(F)nc1F)NCCCCC1CCN(C(=O)c2cccs2)CC1 [PER-202]	5 nM	
O=C(/C=C/c1cccnc1F)NCCCCC1CCN(C(=O)c2ccccc2)CC1 [VAL22-2, (E)-N-(4-(1-benzoylpiperidin-4-yl)butyl)-3-(2-fluoropyridin-3-yl)acrylamide]		CL [2]: 23.6 mL/h; Percentage of extrapolated AUC from T6 h to infinity [2]: 1.4%; T1/2α [2]: 27.6 min; T1/2β [2]: 515 min; half-lives in the second phase (6 h→24 h) compared with FK866 [2]: improved and longer half-lives; Cmax [2]: 16900 ng/mL; Tmax [2]: 10 min; AUC(0-inf) [2]: 8470 ng·h/mL; AUC(0-t) [2]: 8400 ng·h/mL
